What all share (assay type): cell-based
The subject of test [1] is E. coli bacterial cells induced to produce β-galactosidase. Nature of the test: β-galactosidase release colour change assay (X-gal), induced bacteria in welled plate. Particulars: then X-gal 15 minutes at 37° C. The procedure:
(§1) Non-induced E. coli cells were deposited in wells F1-F3 (control). The cells were treated as follows: Group 1, 10% SDS was added to wells A1-A3, B1-B3, and C1-C3; Group 2, 100 μM LL-37 was added to D1-D3; Group 3, untreated induced bacterial cells in wells E1-E3 (control); Group 4, 100 μM LL-37 added to wells F1-F3. Samples were incubated for 15 minutes post-treatment, and 20 μL of 20 mg/mL X-gal substrate was added to each well and allowed to incubate for 15 minutes at 37° C.
A plate was designed as set forth in FIG. 6a: Group 5, induced bacterial cells treated with 100 uM LL-37 (wells A1-A3, B1-B3, C1-C3); Group 6, induced bacterial cells treated with 10% PBS (wells D1-D3), Group 7, non-induced bacteria treated with a lytic agent (wells E1-E3); Group 8, non-induced bacteria untreated (wells F1-F3); Group 9, induced bacteria treated with a lytic agent (wells G1-G3); and Group 10, untreated induced bacteria.
Samples were incubated for 15 minutes post-treatment, and 20 uL of 20 mg/mL X-gal substrate was added to each well and allowed to incubate for 15 minutes at 37° C.
A plate was designed as set forth in FIG. 7a: Group 11, induced bacteria were treated with 100 uM LL-37 (wells A1-A3, B1-B3, and C1-C3); Group 12, induced bacteria that were untreated (wells D1-D3). […]

In test [2] the test system is induced bacteria, lyophilized. Nature of the test: Bacterial Assay IV: lyophilized and rehydrated induced bacteria, X-gal colour change in tubes. The following applies: 100 uM LL-37, rehydrated after 72 hours, X-gal 15 minutes at 37° C. The procedure:
Aliquots of induced bacteria were prepared with 1 mL of the sample dispensed into three Eppendorf tubes. Samples were then lyophilized. After 72 hours to ensure stability, tubes were rehydrated with 1 mL of RPMI 1640 (+) Glucose culture medium and treated. 50 uL of 20 mg/mL X-gal substrate was added to each tube and allowed to incubate for 15 minutes at 37° C.

Test [3] deals with Non-induced E. coli cells. Nature of the test: β-galactosidase release colour change assay (X-gal), non-induced control cells. Particulars: 100 μM LL-37; non-induced cells (Group 4); 15 minutes, then X-gal 15 minutes at 37° C. The protocol: as §1
Another test deals with lacZ transfected E. coli. Nature of the test: Bacterial Assay: 1:2 dilution series of LL-37 on IPTG-induced lacZ transfected E. coli, X-gal colour change. The following applies: 15 minutes room temperature, X-gal 15 minutes 37° C. The procedure: E. coli cells transfected with the lacZ gene that encodes the protein β-galactosidase were obtained. The cells were plated to produce isolate colonies that were then selected.
An isolate colony of lacZ transfected E. coli from the plate of Example 2 was looped and inoculated into 10 mL of RPMI 1640 medium+glucose (available from ThermoFisher Scientific, Waltham, Mass.) and incubated at 37° C. for 24 hours.
The liquid bacterial culture from Example 3 was removed from incubation and centrifuged at 1200 RPM for 7 minutes. The supernatant was removed, and the bacterial pellet was resuspended in 1 mL of RPMI 1640 (−glucose) liquid tissue culture medium as Sample A. A 15 mL centrifuge tube was filled with induction media (8.9 mL RPMI 1640 (−glucose), 100 μL induced IPTG. 1 mL of the resuspended bacterial culture from Sample A was added to the new tube as Sample B, for a final volume of 10 mL. Sample B was incubated at 37° C. for 60 minutes.
After incubation, 100 μL of Sample B was transferred to each of wells A1-A12 and B1-B12. 10 μL of a 2000 μM LL-37 stock solution was then added to well A1, and a 1:2 dilution was conducted across wells A2-A11. The dilution was repeated for wells B1-B11. No LL-37 solution was added to wells A12 and B12 (controls). The plate was incubated for 15 minutes at room temperature. […]

`CCCCCCCCCCCCOS(=O)(=O)[O-].[Na+]` [SDS]: the “colorimetric result (color change pink to blue, release of β-galactosidase)” value in test [1] (10% SDS, 15 minutes post-treatment) is listed as “mild color change”.
On to “LL-37: anti-microbial alpha-helical 37 amino acid peptide released from human cathelicidin; membrane lytic peptide, human or synthetic”, for which the “tube color change pink to blue (release of β-galactosidase)” value in test [2] is recorded as “converted the tube color from pink to blue”. Also, in test [3], the “colorimetric result (color change pink to blue)” value is listed as “remained pink”. For the same compound, the “visual color change, higher concentrations of dilution series” value in the test on lacZ transfected E. coli (wells A1-A5 and B1-B5, 10 μL of 2000 μM stock in well 1, then 1:2 dilution) was “appeared blue”. The “visual color change, lower concentrations of dilution series” value in the test on lacZ transfected E. coli (wells A6-A11 and B6-B11 of the 1:2 dilution series) is “remained pink”. Further, the “colorimetric result (color change pink to blue, release of β-galactosidase)” value in test [1] (100 μM LL-37, 15 minutes post-treatment) is “completely converted the well color from pink to blue”.
